Results: US10149838B2, “Small molecule securinine and norsecurinine analogs and their use in inhibiting myeloperoxidase” (MiRx Pharmaceuticals, LLC, priority 2013, dated 2018)

molecular target: T1, MPO (Homo sapiens, UniProt P05164); assay: Myeloperoxidase Inhibitor Screening Assay Kit (Cayman Chemical), chlorination activity; format: biochemical; parameters: purchased Cayman Chemical 700170; concentration or dose not given beside the values; details: Table 1; MPO inhibitory activity
T1 sequence (P05164 49-745): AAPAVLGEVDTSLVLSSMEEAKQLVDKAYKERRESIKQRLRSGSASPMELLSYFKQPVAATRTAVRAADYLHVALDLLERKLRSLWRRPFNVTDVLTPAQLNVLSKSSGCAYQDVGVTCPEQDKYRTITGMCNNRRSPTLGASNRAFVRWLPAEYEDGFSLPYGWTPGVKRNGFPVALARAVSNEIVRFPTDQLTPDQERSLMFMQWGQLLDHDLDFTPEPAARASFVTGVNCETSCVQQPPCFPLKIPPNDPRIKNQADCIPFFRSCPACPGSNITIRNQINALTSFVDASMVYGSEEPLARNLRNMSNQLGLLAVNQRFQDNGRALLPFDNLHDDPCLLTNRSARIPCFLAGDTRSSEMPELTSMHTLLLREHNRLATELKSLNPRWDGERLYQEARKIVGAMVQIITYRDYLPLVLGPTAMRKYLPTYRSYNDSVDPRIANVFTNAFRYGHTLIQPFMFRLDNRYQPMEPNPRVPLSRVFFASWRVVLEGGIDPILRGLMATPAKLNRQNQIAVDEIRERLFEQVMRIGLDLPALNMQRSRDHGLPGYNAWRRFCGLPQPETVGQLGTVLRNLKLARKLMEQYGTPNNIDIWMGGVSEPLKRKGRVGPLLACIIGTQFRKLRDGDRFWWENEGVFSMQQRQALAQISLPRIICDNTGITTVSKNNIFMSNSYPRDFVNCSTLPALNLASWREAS
Description: The columns are represented as follows: A: Blank; B: Commercial inhibitor; C; Another commercial inhibitor (sc-204107); D: Securinine; E: INVS-MG-98B, F: 14-Iodosecurinine; G; INVS-MG-106B.
The analogs described herein were contacted against MPO and the biological activity was assessed. Tables 1 and 2 show representative biological activity examples and that the listed compounds are potent inhibitors of MPO, specifically that the analogs inhibit chlorination activity. The compounds were tested for MPO inhibitory activity using the Myeloperoxidase Inhibitor Screening Assay Kit (Cayman Chemical Cat #700170) as described in the manufacturers manual
Studies were then aimed at establishing dose dependent relative chlorination activity results of securinine and norsecurinine analogs. As depicted in FIG. 4, the analogs of the present invention were extremely potent in inhibiting chlorination.

Structure (SMILES) | % Activity
NCCSC1CC2=CC(=O)O[C@@]23C[C@@H]1N1CCCC[C@@H]13 (stereo partly drawn) [compound 105] | 99%
COc1cc(C#CC2=C[C@@H]3C[C@@]4(OC(=O)C=C24)[C@H]2CC[C@H](C(OC)OC)N32)cc(OC)c1 [222B] | 70%
O=C1C=C2C(C#Cc3cccs3)=C[C@@H]3C[C@@]2(O1)[C@H]1CCCCN31 [170B] | 64%
CCCSC1CC2=CC(=O)O[C@@]23C[C@@H]1N1CCCC[C@@H]13 (stereo partly drawn) [58C] | 30%
C#CC1=C[C@@H]2C[C@@]3(OC(=O)C=C13)[C@H]1CCCCN21 [207A] | 99%
O=C1C=C2C[C@H](SCC(F)(F)F)[C@@H]3C[C@@]2(O1)[C@H]1CCCCN31 (stereo in doubt) [5B] | 83%
CCCCCCCSC1CC2=CC(=O)O[C@@]23C[C@@H]1N1CCCC[C@@H]13 (stereo partly drawn) [19A] | 38%
O=C1C=C2CC(NCC3CC3)[C@@H]3C[C@@]2(O1)[C@H]1CCCCN31 (stereo partly drawn) [25B] | 99%
CCN(CC)CCSC1CC2=CC(=O)O[C@@]23C[C@@H]1N1CCCC[C@@H]13 (stereo partly drawn) [21B] | 30%
O=C1C=C2CC(SC34CC5CC(CC(C5)C3)C4)[C@@H]3C[C@@]2(O1)[C@H]1CCCCN31 (stereo partly drawn) [4A] | 1%
CO[C@H]1CC2=CC(=O)O[C@@]23C[C@@H]1N1CCCC[C@@H]13 [97-IIB] | 97%
O=C1C=C2C=C[C@@H]3C[C@@]2(O1)[C@H]1CCCCN31 [securinine, Securinine] | 32%
O=C1C=C2CC(SCc3cccs3)[C@@H]3C[C@@]2(O1)[C@H]1CCCCN31 (stereo partly drawn) [INVS-MG-14B] | 83%
O=C1C=C2CC(NC3CCCCCCC3)[C@@H]3C[C@@]2(O1)[C@H]1CCCCN31 (stereo partly drawn) [30A] | 78%
O=C1CC2(SCC(F)(F)F)CC(SCC(F)(F)F)[C@@H]3C[C@@]2(O1)[C@H]1CCCCN31 (stereo partly drawn) [5A] | 78%
CCCN(CC#CC1=C[C@@H]2C[C@@]3(OC(=O)C=C13)[C@H]1CCCCN21)CCC [152A] | 18%
O=C1C=C2CC(NC3CCCCCC3)[C@@H]3C[C@@]2(O1)[C@H]1CCCCN31 (stereo partly drawn) [29A] | 1%
O=C1C=C2CC(NC3CC3)[C@@H]3C[C@@]2(O1)[C@H]1CCCCN31 (stereo partly drawn) [26A] | 83%
O=C(CCCC[C@@H]1SC[C@@H]2NC(=O)N[C@@H]21)NCCS[C@H]1CC2=CC(=O)O[C@@]23C[C@@H]1N1CCCC[C@@H]13 [SEC- BIO] | 32%
CC(C)SC1CC2=CC(=O)O[C@@]23C[C@@H]1N1CCCC[C@@H]13 (stereo partly drawn) [37B] | 97%
O=C1C=C2CC(SCC3CCCCCC3)[C@@H]3C[C@@]2(O1)[C@H]1CCCCN31 (stereo partly drawn) [16A] | 91%
O=C1C=C2CC(NC3CCCCC3)[C@@H]3C[C@@]2(O1)[C@H]1CCCCN31 (stereo partly drawn) [28B] | 86%
O=C1C=C2CC(NC3CCCC3)[C@@H]3C[C@@]2(O1)[C@H]1CCCCN31 (stereo partly drawn) [27B] | 46%
COc1ccc2cc(C#CC3=C[C@@H]4C[C@@]5(OC(=O)C=C35)[C@H]3CCCCN43)ccc2c1 [157B] | 80%
CC(C)CS[C@H]1CC2=CC(=O)O[C@@]23C[C@@H]1N1CCCC[C@@H]13 (stereo in doubt) [57B] | 2%
O=C1C=C2CC(N3CCC(F)(F)C3)[C@@H]3C[C@@]2(O1)[C@H]1CCCCN31 (stereo partly drawn) [9A] | 46%
O=C1C=C2CC(NC3CC(O)C3)[C@@H]3C[C@@]2(O1)[C@H]1CCCCN31 (stereo partly drawn) [46B] | 99%
CC(C)CSC1CC2=CC(=O)O[C@@]23C[C@@H]1N1CCCC[C@@H]13 (stereo in doubt) [57A] | 86%

molecular target: T1, MPO; assay: Biotin pull-down with streptavidin magnetic beads from HL60 cells, SDS-PAGE, MS and western blot; format: binding; parameters: endogenous in cells; host or cells: HL60; details: 10 μM, 2 hr, biotin-conjugated
Description: Only MPO (red) and H2O2 promoted a shift in the Soret peak, formation of a new band at 630 nm (blue).
It was next set about to investigate the molecular target of the analogs (FIG. 6A). Cultured HL60 cells were treated with either Biotin/Biotin-INVMG1 (securinine) (10 μM) for 2 hr and pull-down experiments using streptavidin magnetic beads were used to pulldown bound molecules, followed by SDS-PAGE analysis (FIG. 6B). […] This 80 kDa protein band was excised, digested with trypsin, and the tryptic digests then analyzed using Mass Spectroscopy. […] The proteins bound to streptavidin beads were next separated using SDS-PAGE and incubated then with anti-human MPO antibody. […] To further confirm the binding of INVMG1 to MPO, the MPO enzyme was incubated with and without INVMG184B/H2O2, and analyzed absorption maxima using UV/visible.

Structure (SMILES) | binding to MPO in pull-down
O=C1C=C2C=C[C@@H]3C[C@@]2(O1)[C@H]1CCCCN31 [securinine, Securinine] | revealed the binding of MPO

system: some cell lines; assay: MTT cell survival assay (Roche), cell lines not specified; format: cell-based; details: cell culture conditions
Excerpt: The securinine analog MPO inhibitors have favorable in vitro and in vivo toxicity profiles.

Structure (SMILES) | in vitro toxicity (cell survival)
O=C1C=C2C=C[C@@H]3C[C@@]2(O1)[C@H]1CCCCN31 [MA1] | higher toxicity effect on some cell lines
